Data from the NIST ThermoML archive (doi:10.1016/j.jct.2009.08.009).

Assay: xn = mol fraction of the nth substance listed
Conditions: 101 kPa, Liquid; for viscosity: Capillary tube (Ostwald / Ubbelohde) method; for speed of sound: Sing-around technique in a fixed-path interferometer; for mass density: Vibrating tube method

CCOCCOCCO [3,6-dioxa-1-octanol] + CCCCCCO
Conditions | mass density [kg/m3] | speed of sound [m/s] | viscosity [mPa·s]
293.15 K, x1 = 0.0515 | 828.146 | 1322.4 | 4.442
293.15 K, x1 = 0.1039 | 837.651 | 1324.9 | 4.111
293.15 K, x1 = 0.1456 | 845.454 | 1327.5 | 3.932
293.15 K, x1 = 0.2078 | 857.041 | 1331.1 | 3.714
293.15 K, x1 = 0.2501 | 864.989 | 1334.2 | 3.614
293.15 K, x1 = 0.3127 | 876.967 | 1338.7 | 3.482
293.15 K, x1 = 0.3517 | 884.493 | 1342.1 | 3.423
293.15 K, x1 = 0.5241 | 918.471 | 1358.7 | 3.279
293.15 K, x1 = 0.6227 | 938.481 | 1370.5 | 3.308
293.15 K, x1 = 0.7217 | 959.157 | 1384.3 | 3.352
293.15 K, x1 = 0.8227 | 980.826 | 1400.4 | 3.384
293.15 K, x1 = 0.915 | 1000.91 | 1416.4 | 3.588
293.15 K, x1 = 1 | – | – | 3.626
298.15 K, x1 = 0.0515 | 824.518 | 1305.4 | 3.906
298.15 K, x1 = 0.1039 | 833.976 | 1308 | 3.655
298.15 K, x1 = 0.1456 | 841.738 | 1310.6 | 3.495
298.15 K, x1 = 0.2078 | 853.267 | 1314.3 | 3.352
298.15 K, x1 = 0.2501 | 861.179 | 1317.4 | 3.237
298.15 K, x1 = 0.3127 | 873.107 | 1322 | 3.121
298.15 K, x1 = 0.3517 | 880.591 | 1325.3 | 3.066
298.15 K, x1 = 0.5241 | 914.427 | 1341.9 | 2.951
298.15 K, x1 = 0.6227 | 934.36 | 1353.8 | 2.965
298.15 K, x1 = 0.7217 | 954.955 | 1367.5 | 3.009
298.15 K, x1 = 0.8227 | 976.55 | 1383.5 | 3.054
298.15 K, x1 = 0.915 | 996.56 | 1399.5 | 3.235
298.15 K, x1 = 1 | – | – | 3.278
303.15 K, x1 = 0.0515 | 820.874 | 1288.7 | 3.381
303.15 K, x1 = 0.1039 | 830.282 | 1291.3 | 3.154
303.15 K, x1 = 0.1456 | 838.004 | 1293.9 | 3.026
303.15 K, x1 = 0.2078 | 849.482 | 1297.6 | 2.879
303.15 K, x1 = 0.2501 | 857.352 | 1300.7 | 2.809
303.15 K, x1 = 0.3127 | 869.225 | 1305.3 | 2.726
303.15 K, x1 = 0.3517 | 876.678 | 1308.7 | 2.682
303.15 K, x1 = 0.5241 | 910.37 | 1325.3 | 2.584
303.15 K, x1 = 0.6227 | 930.226 | 1337.1 | 2.605
303.15 K, x1 = 0.7217 | 950.745 | 1350.8 | 2.647
303.15 K, x1 = 0.8227 | 972.261 | 1366.7 | 2.693
303.15 K, x1 = 0.915 | 992.202 | 1382.6 | 2.801
303.15 K, x1 = 1 | – | – | 2.862
308.15 K, x1 = 0.0515 | 817.198 | 1272.1 | 2.901
308.15 K, x1 = 0.1039 | 826.564 | 1274.7 | 2.72
308.15 K, x1 = 0.1456 | 834.246 | 1277.3 | 2.631
308.15 K, x1 = 0.2078 | 845.669 | 1280 | 2.503
308.15 K, x1 = 0.2501 | 853.504 | 1284.2 | 2.443
308.15 K, x1 = 0.3127 | 865.322 | 1288.8 | 2.374
308.15 K, x1 = 0.3517 | 872.742 | 1292.1 | 2.342
308.15 K, x1 = 0.5241 | 906.299 | 1308.8 | 2.266
308.15 K, x1 = 0.6227 | 926.073 | 1320.6 | 2.278
308.15 K, x1 = 0.7217 | 946.516 | 1334.2 | 2.297
308.15 K, x1 = 0.8227 | 967.953 | 1350 | 2.349
308.15 K, x1 = 0.915 | 987.826 | 1365.8 | 2.445
308.15 K, x1 = 1 | – | – | 2.507
